Test results published in PMC12678836, “Screening for dual-target enzyme inhibitors derived from Gardenia jasminoides roots, a medicinal and edible plant: investigation of their potential anti-dementia activity” (Frontiers in Nutrition, 2025).
Like-named read-outs stand apart in the source and are kept apart here.

How the values were obtained:
AChE [1] = target: T1, AChE (Musca domestica, UniProt A0ABM3VDL1); assay: Affinity ultrafiltration-HPLC binding degree to AChE; parameters: species or system fly; conditions: GJR extract, 37 °C 30 min
Method: (§1) A total of 300 g of GJR was accurately weighed, dried, and ground into a fine powder using a mechanical grinder. The powdered material was extracted with 60% ethanol (v/v) at a solvent-to-solid ratio of 20:1 (v/v). Each extraction cycle involved ultrasonication for 1 h and was performed twice to ensure exhaustive extraction. The combined extracts were concentrated to dryness by rotary evaporation under reduced pressure, yielding 6.75 g of crude extract. A 50 mg portion of the crude extract was accurately weighed, dissolved in 50% methanol–water (v/v), and diluted to a final concentration of 50 mg/ml to obtain a stock solution for subsequent experiments. All procedures were conducted under controlled laboratory conditions to ensure consistency and reproducibility.
(§2) The screening assay consisted of two groups: a blank control and an experimental group, both prepared in phosphate-buffered saline (PBS). In the experimental group, 10.0 μl of the sample solution was mixed with 90.0 μl of either 5-lipoxygenase (5-LOX) and acetylcholinesterase (AChE) at final concentrations of 0.5, 1.0, or 2.0 U/ml, along with 100 μl of PBS (pH 7.4), resulting in a total volume of 200 μl. The mixture was incubated at 37 °C for 30 min and subsequently filtered through a 100 kDa ultrafiltration membrane by centrifugation at high speed for 10 min. The supernatant was discarded, and the membrane was washed three times with PBS to remove free or non-specifically bound compounds. Then, 150 μl of 50% methanol–water was added to denature the proteins and release the bound small molecules. For the blank control, the enzyme solution was replaced with an equal volume of PBS, while all other experimental conditions remained the same. The resulting eluate was analyzed by HPLC. The binding degree (BD) was used to quantify the interaction between compounds and the target enzymes. It was calculated based on the increase in chromatographic peak area of enzyme-bound compounds, using the following formula: […]

5-LOX [2] = target: T2, 5-LOX (Glycine max, UniProt P08170); assay: Affinity ultrafiltration-HPLC binding degree to 5-LOX; conditions: GJR extract, 37 °C 30 min
T2 sequence (P08170 1-839): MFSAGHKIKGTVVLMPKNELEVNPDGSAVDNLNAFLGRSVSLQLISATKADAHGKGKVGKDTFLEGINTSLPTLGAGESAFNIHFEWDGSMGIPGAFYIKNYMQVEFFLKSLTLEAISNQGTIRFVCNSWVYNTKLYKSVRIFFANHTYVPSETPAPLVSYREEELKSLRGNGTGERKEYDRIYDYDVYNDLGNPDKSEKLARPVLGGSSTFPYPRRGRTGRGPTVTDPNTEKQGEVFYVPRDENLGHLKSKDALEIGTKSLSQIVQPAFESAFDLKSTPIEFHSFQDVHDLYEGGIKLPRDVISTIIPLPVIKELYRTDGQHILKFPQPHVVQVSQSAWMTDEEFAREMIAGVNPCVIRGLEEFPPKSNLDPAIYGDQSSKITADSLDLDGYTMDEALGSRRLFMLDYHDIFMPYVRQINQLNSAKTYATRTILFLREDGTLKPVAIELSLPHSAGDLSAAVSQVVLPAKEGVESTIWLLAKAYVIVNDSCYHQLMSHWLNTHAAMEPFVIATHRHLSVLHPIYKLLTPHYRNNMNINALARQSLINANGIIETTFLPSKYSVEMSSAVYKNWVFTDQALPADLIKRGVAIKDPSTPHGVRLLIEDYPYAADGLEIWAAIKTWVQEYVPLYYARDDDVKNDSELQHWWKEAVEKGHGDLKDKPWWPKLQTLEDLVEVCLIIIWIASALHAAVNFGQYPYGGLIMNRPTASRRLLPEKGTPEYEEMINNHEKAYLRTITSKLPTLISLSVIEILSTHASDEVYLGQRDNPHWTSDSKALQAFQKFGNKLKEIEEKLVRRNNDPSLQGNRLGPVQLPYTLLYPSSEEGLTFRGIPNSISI
Method: as §1, §2

5-LOX [3] = target: T2, 5-LOX; assay: 5-LOX enzyme inhibition and inhibition kinetics (linoleic acid substrate, HPLC); format: biochemical; conditions: Lineweaver-Burk / rate vs enzyme concentration
Excerpt: Galantamine served as the positive control.

AChE [4] = target: T1, AChE
Method: Acetylcholinesterase (AChE, EC 3.2.1.20) was extracted from fly heads.
All reagents were prepared with 0.05 mol/L phosphate buffer solution at pH 6.8. […] Before use, it was diluted to 0, 5, 10, 15, and 20 × 10^−5 mol/L. 5-LOX and linoleic acid were, respectively prepared at concentrations of 2.08 × 10^−7 and 5.0 × 10^−4 mol/L. AChE and iodinated thioacetylcholine were prepared using the same method.
The mixture was incubated for 10 min at 37 °C in a thermostatic water bath to form the enzyme reaction solution, followed by the addition of linoleic acid (5.0 × 10^−4 mol/L) as the substrate. […] For the AChE assay, 0.1 ml of DTNB solution was included in the reaction mixture and incubated under the same conditions as those used in the 5-LOX experiment, while all other procedural steps remained identical. The control group was not supplemented with samples, while the blank group received an equal volume of buffer solution in place of the enzyme solution. […] Enzyme activity in the absence of any inhibitor was regarded as 100%.
By analyzing the correlation between reaction rate and enzyme concentration, a kinetic curve was generated.
Data analysis was carried out using Origin 8.0 software through one-way ANOVA, with each sample group subjected to three independent replicate experiments (p < 0.05).

T1 sequence (A0ABM3VDL1 81-660): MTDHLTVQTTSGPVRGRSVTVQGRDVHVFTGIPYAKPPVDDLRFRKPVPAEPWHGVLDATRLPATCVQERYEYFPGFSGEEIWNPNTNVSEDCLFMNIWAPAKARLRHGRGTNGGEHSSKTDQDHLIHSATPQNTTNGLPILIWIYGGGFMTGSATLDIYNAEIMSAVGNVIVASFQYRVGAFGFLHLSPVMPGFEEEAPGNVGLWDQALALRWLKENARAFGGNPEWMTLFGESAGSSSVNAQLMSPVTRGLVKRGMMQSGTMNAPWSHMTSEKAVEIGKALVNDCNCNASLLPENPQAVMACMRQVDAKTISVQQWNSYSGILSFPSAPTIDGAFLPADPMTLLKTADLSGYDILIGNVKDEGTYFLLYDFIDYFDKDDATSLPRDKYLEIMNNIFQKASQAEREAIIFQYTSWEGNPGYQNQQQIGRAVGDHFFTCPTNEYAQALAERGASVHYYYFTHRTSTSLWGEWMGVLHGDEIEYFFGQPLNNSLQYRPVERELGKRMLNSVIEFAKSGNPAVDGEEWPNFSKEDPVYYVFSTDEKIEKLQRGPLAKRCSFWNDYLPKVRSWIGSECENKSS

COc1cc(C2OCC3C(c4cc(OC)c(OC5OC(CO)C(O)C(O)C5O)c(OC)c4)OCC23)cc(OC)c1OC1OC(CO)C(O)C(O)C1O (stereo not drawn) [Eleutheroside E]
BD (binding degree) with AChE (AChE [1]; AChE 0.5 U/ml): 12.19% | BD (binding degree) with AChE (AChE [1]; AChE 1.0 U/ml): 21.06% | BD (binding degree) with AChE (AChE [1]; AChE 2.0 U/ml): 69.87% | BD (binding degree) with 5-LOX (5-LOX [2]; 5-LOX 0.5 U/ml): 38.17% | BD (binding degree) with 5-LOX (5-LOX [2]; 5-LOX 1.0 U/ml): 55.16% | BD (binding degree) with 5-LOX (5-LOX [2]; 5-LOX 2.0 U/ml): 59.44%

C[C@]1(O)CC[C@@H]2C(C(=O)O)=CO[C@@H](O[C@@H]3O[C@H](CO)[C@@H](O)[C@H](O)[C@H]3O)[C@@H]21 [Mussaenoside acid]
Inhibition type for 5-LOX (5-LOX [3]): competitive inhibition | Inhibition type for 5-LOX (5-LOX [3]; listed as mussaenoside acid): reversible inhibition | Kis, AChE (AChE [4]; Lineweaver-Burk): 102.08 | Inhibition type for AChE (AChE [4]; concentration exceeds 10 × 10^−5 mol/L): mixed-type inhibition | Inhibition type for AChE (AChE [4]; concentrations below 5 × 10^−5 mol/L): competitive inhibition | Inhibition type for AChE (AChE [4]; overall statement in conclusion): mixed-type inhibition
